PubChem BioAssay AID1963965 (Molecular Pharmacology Branch, DTP, NCI, 2024)

Tested on: 996289-038-R-J1-PDC spheroid viability
Experiment: Anticancer human tumor 996289-038-R-J1-PDC patient-derived colon adenocarcinoma cell line growth inhibition [PI3K]
Settings: spheroids with HUVEC and MSC; for IC50: curve of first compound; for viability, T/C: stronger effect = lower value
Outline: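 Tumor cells were combined with HUVEC and MSCs into spheroids, then dosed with PI3K-inhibitor combinations over half-log ranges capped near clinical Cmax or 10 microM.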

[1] = second compound 0.0316 µM, first compound 0.0316 µM
[2] = second compound 0.0316 µM, first compound 0.1 µM
[3] = second compound 0.0316 µM, first compound 0.316 µM
[4] = second compound 0.0316 µM, first compound 1 µM
[5] = second compound 0.1 µM, first compound 0.0316 µM
[6] = second compound 0.1 µM, first compound 0.1 µM
[7] = second compound 0.1 µM, first compound 0.316 µM
[8] = second compound 0.1 µM, first compound 1 µM
[9] = second compound 0.316 µM, first compound 0.0316 µM
[10] = second compound 0.316 µM, first compound 0.1 µM
[11] = second compound 0.316 µM, first compound 0.316 µM
[12] = second compound 0.316 µM, first compound 1 µM
[13] = second compound 1 µM, first compound 0.0316 µM
[14] = second compound 1 µM, first compound 0.1 µM
[15] = second compound 1 µM, first compound 0.316 µM
[16] = second compound 1 µM, first compound 1 µM
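Further: spheroids exposed to compounds for seven days before viability read.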
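Wherever viability, T/C is given: luminescence used as a proxy for viable cell amount; percent viability relative to DMSO vehicle control as 100%.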

CCN1CCN(Cc2ccc(Nc3ncc(F)c(-c4cc(F)c5nc(C)n(C(C)C)c5c4)n3)nc2)CC1 + CC(Nc1ccc2c(c1)OCCn1cc(N3C(=O)OCC3C(F)F)nc1-2)C(N)=O
IC50 (second compound 0.00316 µM): > 1 µM | IC50 (second compound 0.01 µM): > 1 µM | IC50 (second compound 0.0316 µM): > 1 µM | IC50 (second compound 0.1 µM): > 1 µM | IC50 (second compound 0.316 µM): 0.772 µM | IC50 (second compound 1 µM): 0.0538 µM | viability, T/C (second compound 0.00316 µM, first compound 0.00316 µM): 97.1% | viability, T/C (second compound 0.00316 µM, first compound 0.01 µM): 93.1% | viability, T/C (second compound 0.00316 µM, first compound 0.0316 µM): 93.2% | viability, T/C (second compound 0.00316 µM, first compound 0.1 µM): 84.8% | viability, T/C (second compound 0.00316 µM, first compound 0.316 µM): 76.9% | viability, T/C (second compound 0.00316 µM, first compound 1 µM): 78.3% | viability, T/C (second compound 0.01 µM, first compound 0.00316 µM): 98.5% | viability, T/C (second compound 0.01 µM, first compound 0.01 µM): 98.9% | viability, T/C (second compound 0.01 µM, first compound 0.0316 µM): 83.2% | viability, T/C (second compound 0.01 µM, first compound 0.1 µM): 75.8% | viability, T/C (second compound 0.01 µM, first compound 0.316 µM): 82.9% | viability, T/C (second compound 0.01 µM, first compound 1 µM): 82.8% | viability, T/C (second compound 0.0316 µM, first compound 0.00316 µM): 94.9% | viability, T/C (second compound 0.0316 µM, first compound 0.01 µM): 83.2% | viability, T/C [1]: 78.9% | viability, T/C [2]: 69.8% | viability, T/C [3]: 79.8% | viability, T/C [4]: 67.5% | viability, T/C (second compound 0.1 µM, first compound 0.00316 µM): 78.6% | viability, T/C (second compound 0.1 µM, first compound 0.01 µM): 75.1% | viability, T/C [5]: 74.7% | viability, T/C [6]: 66.1% | viability, T/C [7]: 61.3% | viability, T/C [8]: 65.8% | viability, T/C (second compound 0.316 µM, first compound 0.00316 µM): 71.3% | viability, T/C (second compound 0.316 µM, first compound 0.01 µM): 73.9% | viability, T/C [9]: 64.3% | viability, T/C [10]: 54.7% | viability, T/C [11]: 57.3% | viability, T/C [12]: 48.4% | viability, T/C (second compound 1 µM, first compound 0.00316 µM): 53.7% | viability, T/C (second compound 1 µM, first compound 0.01 µM): 53.2% | viability, T/C [13]: 52.6% | viability, T/C [14]: 47.4% | viability, T/C [15]: 46.4% | viability, T/C [16]: 45%

CC1(C)CCC(Nc2ncc(C(F)(F)F)c(-c3c[nH]c4c(P(C)(C)=O)c(C#N)ccc34)n2)CN1 (centres undefined) + CC(Nc1ncnc2nc[nH]c12)c1cc2cccc(Cl)c2c(=O)n1-c1ccccc1
IC50 (second compound 0.0316 µM): 6.14 µM | IC50 (second compound 0.1 µM): 5.51 µM | IC50 (second compound 0.316 µM): 5.94 µM | IC50 (second compound 1 µM): 5.43 µM | IC50 (second compound 3.16 µM): 5.26 µM | IC50 (second compound 10 µM): 4.66 µM | viability, T/C [1]: 95.8% | viability, T/C [2]: 84.5% | viability, T/C [3]: 85.2% | viability, T/C [4]: 77.9% | viability, T/C (second compound 0.0316 µM, first compound 3.16 µM): 84% | viability, T/C (second compound 0.0316 µM, first compound 10 µM): 25% | viability, T/C [5]: 88.9% | viability, T/C [6]: 87.3% | viability, T/C [7]: 77.9% | viability, T/C [8]: 75.4% | viability, T/C (second compound 0.1 µM, first compound 3.16 µM): 78.1% | viability, T/C (second compound 0.1 µM, first compound 10 µM): 20.1% | viability, T/C [9]: 95.7% | viability, T/C [10]: 83.8% | viability, T/C [11]: 85.8% | viability, T/C [12]: 77.9% | viability, T/C (second compound 0.316 µM, first compound 3.16 µM): 87.8% | viability, T/C (second compound 0.316 µM, first compound 10 µM): 19.9% | viability, T/C [13]: 88.6% | viability, T/C [14]: 86.1% | viability, T/C [15]: 72.8% | viability, T/C [16]: 72.3% | viability, T/C (second compound 1 µM, first compound 3.16 µM): 80.3% | viability, T/C (second compound 1 µM, first compound 10 µM): 16% | viability, T/C (second compound 3.16 µM, first compound 0.0316 µM): 82.6% | viability, T/C (second compound 3.16 µM, first compound 0.1 µM): 81.3% | viability, T/C (second compound 3.16 µM, first compound 0.316 µM): 74.2% | viability, T/C (second compound 3.16 µM, first compound 1 µM): 74.4% | viability, T/C (second compound 3.16 µM, first compound 3.16 µM): 79.2% | viability, T/C (second compound 3.16 µM, first compound 10 µM): 14.2% | viability, T/C (second compound 10 µM, first compound 0.0316 µM): 90.9% | viability, T/C (second compound 10 µM, first compound 0.1 µM): 74.5% | viability, T/C (second compound 10 µM, first compound 0.316 µM): 58.3% | viability, T/C (second compound 10 µM, first compound 1 µM): 70.3% | viability, T/C (second compound 10 µM, first compound 3.16 µM): 69.8% | viability, T/C (second compound 10 µM, first compound 10 µM): 10.9%
